Data set [1] deals with MDA-MB-231. Description: Cytotoxicity against human MDA-MB-231 cells after 72 hrs by sulforhodamine B assay. In kind it is functional, cell-based. To be noted: MDA-MB-231, 72 h. (The SRB assay estimates cell density from bound dye.)
A further data set deals with A549. Description: Cytotoxicity against human A549 cells after 72 hrs by sulforhodamine B assay. The class given is functional, cell-based. To be noted: A549, 72 h.
The next data set deals with HeLa. Description: Cytotoxicity against human HeLa cells after 72 hrs by sulforhodamine B assay. The class given is functional, cell-based.
Data set [2] deals with T1, DNA topoisomerase (Bos taurus) (UniProt A0JN73).
T1 sequence (whole entry): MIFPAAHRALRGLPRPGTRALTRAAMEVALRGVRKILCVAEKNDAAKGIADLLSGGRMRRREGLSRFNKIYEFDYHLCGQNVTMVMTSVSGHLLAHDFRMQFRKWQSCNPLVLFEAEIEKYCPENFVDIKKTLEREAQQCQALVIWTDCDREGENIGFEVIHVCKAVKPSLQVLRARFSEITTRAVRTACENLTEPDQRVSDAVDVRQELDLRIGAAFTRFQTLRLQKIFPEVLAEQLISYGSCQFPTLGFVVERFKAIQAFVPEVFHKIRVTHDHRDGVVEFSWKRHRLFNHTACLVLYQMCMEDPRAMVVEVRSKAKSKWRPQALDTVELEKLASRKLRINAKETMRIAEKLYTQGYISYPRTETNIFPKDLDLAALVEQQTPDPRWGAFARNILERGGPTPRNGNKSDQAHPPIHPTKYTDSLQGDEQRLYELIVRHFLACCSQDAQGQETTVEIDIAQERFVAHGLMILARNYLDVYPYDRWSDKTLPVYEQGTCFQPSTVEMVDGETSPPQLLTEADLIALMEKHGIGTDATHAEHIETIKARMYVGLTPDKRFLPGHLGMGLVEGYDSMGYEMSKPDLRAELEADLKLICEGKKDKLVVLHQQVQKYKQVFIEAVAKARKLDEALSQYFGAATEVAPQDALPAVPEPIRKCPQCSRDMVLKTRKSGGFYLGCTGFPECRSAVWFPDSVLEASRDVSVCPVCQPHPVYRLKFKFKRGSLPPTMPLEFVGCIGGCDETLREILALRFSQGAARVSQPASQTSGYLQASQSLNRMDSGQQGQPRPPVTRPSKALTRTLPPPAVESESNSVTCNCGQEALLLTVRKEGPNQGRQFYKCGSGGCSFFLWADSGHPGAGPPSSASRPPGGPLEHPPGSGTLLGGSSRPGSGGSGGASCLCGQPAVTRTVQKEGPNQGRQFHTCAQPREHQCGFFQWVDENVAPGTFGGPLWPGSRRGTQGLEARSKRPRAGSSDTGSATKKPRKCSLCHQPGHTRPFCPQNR
Description: Inhibition of calf thymus DNA topoisomerase 1 assessed as reduction in pBR322 DNA relaxation at 100 uM incubated for 30 mins by DNA gel electrophoresis.

For data set [3], the target named is DNA topoisomerase 2-alpha (Homo sapiens) (UniProt P11388). Description: Inhibition of human recombinant topoisomerase 2alpha assessed as reduction in pBR322 DNA relaxation at 100 uM incubated for 30 mins by DNA gel electrophoresis.
Sequence of DNA topoisomerase 2-alpha (Homo sapiens) (P11388 whole entry): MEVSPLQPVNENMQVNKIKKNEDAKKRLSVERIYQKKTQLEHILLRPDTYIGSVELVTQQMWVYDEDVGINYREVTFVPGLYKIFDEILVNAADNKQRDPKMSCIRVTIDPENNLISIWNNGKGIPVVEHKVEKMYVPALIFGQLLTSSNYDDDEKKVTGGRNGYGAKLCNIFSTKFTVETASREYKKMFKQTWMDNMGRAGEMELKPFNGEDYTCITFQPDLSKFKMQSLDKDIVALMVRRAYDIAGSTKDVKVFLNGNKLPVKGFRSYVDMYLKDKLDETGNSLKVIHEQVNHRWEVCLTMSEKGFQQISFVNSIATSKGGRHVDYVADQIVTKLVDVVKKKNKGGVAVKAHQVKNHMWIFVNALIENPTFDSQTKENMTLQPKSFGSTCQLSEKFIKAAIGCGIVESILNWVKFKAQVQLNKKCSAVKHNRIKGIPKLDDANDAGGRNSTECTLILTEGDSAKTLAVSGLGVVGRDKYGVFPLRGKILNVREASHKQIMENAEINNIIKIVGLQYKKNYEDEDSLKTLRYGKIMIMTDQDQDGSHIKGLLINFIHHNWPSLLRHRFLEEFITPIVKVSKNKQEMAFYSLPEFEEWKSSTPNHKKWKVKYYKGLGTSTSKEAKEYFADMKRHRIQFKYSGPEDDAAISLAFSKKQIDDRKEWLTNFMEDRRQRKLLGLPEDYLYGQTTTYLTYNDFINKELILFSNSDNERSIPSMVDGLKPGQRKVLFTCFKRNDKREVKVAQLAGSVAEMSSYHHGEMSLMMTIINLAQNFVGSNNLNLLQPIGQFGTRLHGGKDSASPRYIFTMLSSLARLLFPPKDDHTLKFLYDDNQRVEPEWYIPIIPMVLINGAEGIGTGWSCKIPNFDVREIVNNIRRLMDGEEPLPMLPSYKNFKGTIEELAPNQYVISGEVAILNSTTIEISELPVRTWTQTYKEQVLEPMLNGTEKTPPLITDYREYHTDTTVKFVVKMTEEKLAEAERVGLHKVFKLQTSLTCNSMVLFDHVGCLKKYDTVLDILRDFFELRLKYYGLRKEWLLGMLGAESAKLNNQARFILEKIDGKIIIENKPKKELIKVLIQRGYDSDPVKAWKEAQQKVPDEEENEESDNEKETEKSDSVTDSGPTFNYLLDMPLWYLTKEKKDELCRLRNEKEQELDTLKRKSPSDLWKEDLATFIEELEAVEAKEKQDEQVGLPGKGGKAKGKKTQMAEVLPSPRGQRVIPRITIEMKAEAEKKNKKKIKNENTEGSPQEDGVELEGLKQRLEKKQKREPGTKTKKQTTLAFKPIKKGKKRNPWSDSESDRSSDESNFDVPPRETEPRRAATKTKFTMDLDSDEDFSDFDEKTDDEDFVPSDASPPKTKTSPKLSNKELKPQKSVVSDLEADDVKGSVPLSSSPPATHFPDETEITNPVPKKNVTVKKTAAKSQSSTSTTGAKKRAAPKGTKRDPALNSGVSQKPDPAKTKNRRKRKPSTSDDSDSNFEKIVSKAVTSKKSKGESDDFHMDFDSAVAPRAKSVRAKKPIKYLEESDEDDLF
Data set [4] shares this target. Description: Inhibition of human recombinant topoisomerase 2alpha assessed as reduction in kDNA decatenation at 100 uM incubated for 30 mins by DNA gel electrophoresis.
The test system of data set [5] is MDA-MB-231. The data set can be described thus: Increase in histone H3 Ser10 phosphorylation in human MDA-MB-231 cells at 10 uM after 24 hrs by Western blot method. In kind it is functional, cell-based. In general terms: A western blot detects proteins with antibodies after separation by electrophoresis.
Data set [6] has as its system MDA-MB-231. The data set can be described thus: Induction of DNA damage in human MDA-MB-231 cells assessed as increase in ATM S1981 phosphorylation at 10 uM after 24 hrs by Western blot method. In kind it is functional, cell-based.
Data set [7] concerns MDA-MB-231. The data set can be described thus: Antitumor activity against human MDA-MB-231 cells xenografted in BALB/c-nu mouse assessed as reduction in tumor weight at 20 mg/kg, iv dosed every other day for 15 days. The class given is functional. The settings on record: MDA-MB-231, 360 h.
A further data set concerns Mus musculus. The data set can be described thus: Toxicity in nude BALB/c mouse xenografted with human MDA-MB-231 cells assessed as reduction in body weight at 20 mg/kg, iv dosed every other day for 15 days (reference value: 24.2 g). More on the design: dose 20 mg/kg, route intravenous. The class given is organism-based. To be noted: in vivo, 360 h. (Xenograft models place foreign cells or tissue in a host animal.)

Data set [8] addresses DNA topoisomerase 2-alpha (Homo sapiens) (UniProt P11388). The settings on record: 100 uM.
Description: Inhibition of human recombinant topoisomerase 2alpha assessed as increase in linear DNA using circular supercoiled plasmid DNA substrate at 100 uM incubated for 30 mins by ethidium bromide staining based DNA gel electrophoresis
Data set [9] has the same target. Description: Inhibition of human recombinant topoisomerase 2alpha assessed as reduction in pBR322 DNA relaxation at 200 uM incubated for 30 mins by DNA gel electrophoresis.
The target is the same in data set [10]. Description: Inhibition of human recombinant topoisomerase 2alpha assessed as reduction in pBR322 DNA relaxation incubated for 30 mins by DNA gel electrophoresis.
For data set [11] the target is unchanged. The data set can be described thus: Inhibition of human recombinant topoisomerase 2alpha assessed as increase in linear DNA using circular supercoiled plasmid DNA substrate at 100 to 200 uM incubated for 30 mins by ethidium bromide staining based DNA gel electrophoresis.
The subject of data set [12] is Nucleic Acid. Description: Induction of DNA intercalation in Escherichia coli pBR322 DNA at 50 to 200 uM by DNA gel electrophoresis. The class given is nucleic-acid assay.
Data set [13] concerns MDA-MB-231. The data set can be described thus: Induction of cell cycle arrest in human MDA-MB-231 cells assessed as accumulation at G2/M phase at 5 uM after 24 hrs by propidium iodide staining based flow cytometry (reference value: 25.19%). In kind it is functional.
In data set [14] the test system is MDA-MB-231. The data set can be described thus: Induction of cell cycle arrest in human MDA-MB-231 cells assessed as reduction in accumulation at G0/G1 phase at 5 uM after 24 hrs by propidium iodide staining based flow cytometry. In kind it is functional.
The test system of data set [15] is MDA-MB-231. The data set can be described thus: Induction of cell cycle arrest in human MDA-MB-231 cells assessed as reduction in accumulation at S phase at 5 uM after 24 hrs by propidium iodide staining based flow cytometry. The class given is functional.
The test system of data set [16] is MDA-MB-231. Description: Increase in histone H3 Ser10 phosphorylation in human MDA-MB-231 cells at 1 to 5 uM after 24 hrs by Western blot method. The class given is functional, cell-based.
Data set [17] concerns MDA-MB-231. The data set can be described thus: Increase in cyclin B protein expression in human MDA-MB-231 cells at 1 to 5 uM after 24 hrs by Western blot method. The class given is functional, cell-based.
Data set [18] relates to MDA-MB-231. Description: Effect on cdc2 protein expression in human MDA-MB-231 cells at 1 to 5 uM after 24 hrs by Western blot method. The class given is functional, cell-based.
Data set [19] concerns MDA-MB-231. The data set can be described thus: Induction of DNA damage in human MDA-MB-231 cells assessed as increase in gammaH2AX protein expression at 1 to 5 uM after 24 hrs by Western blot method. The class given is functional, cell-based.
Data set [20] concerns MDA-MB-231. The data set can be described thus: Induction of DNA damage in human MDA-MB-231 cells assessed as increase in ATR S428 phosphorylation at 1 to 5 uM after 24 hrs by Western blot method. The class given is functional, cell-based.
The test system of data set [21] is MDA-MB-231. The data set can be described thus: Induction of DNA damage in human MDA-MB-231 cells assessed as ATR expression level at 1 to 5 uM after 24 hrs by Western blot method. The class given is functional, cell-based.
The test system of data set [22] is MDA-MB-231. Description: Induction of DNA damage in human MDA-MB-231 cells assessed as ATM S1981 phosphorylation at 1 to 5 uM after 24 hrs by Western blot method. The class given is functional, cell-based.
Data set [23] has as its system MDA-MB-231. Description: Induction of DNA damage in human MDA-MB-231 cells assessed as ATM expression level at 1 to 5 uM after 24 hrs by Western blot method. In kind it is functional, cell-based.
Data set [24] concerns MDA-MB-231. Description: Induction of DNA damage in human MDA-MB-231 cells assessed as increase in p53 S46 phosphorylation at 1 to 5 uM after 24 hrs by Western blot method. In kind it is functional, cell-based.
The subject of data set [25] is MDA-MB-231. The data set can be described thus: Induction of DNA damage in human MDA-MB-231 cells assessed as increase in p53 expression level at 1 to 5 uM after 24 hrs by Western blot method. In kind it is functional, cell-based.
Data set [26] relates to Nucleic Acid. The data set can be described thus: Induction of DNA intercalation in Escherichia coli pBR322 DNA at 100 uM by DNA gel electrophoresis. In kind it is nucleic-acid assay.

A word on the IC50: it is the concentration at which inhibition is half-maximal. Higher therefore signals weaker potency. Broadly, the inhibition in vivo is the share of the control response that was lost under treatment.

Activity calls are given as the source filed them. No cut-off for these calls is given here.

For the molecule `O=Cc1cc(-c2ccc3cc(O)ccc3c2)ccc1O`, the IC50 in the data set on MDA-MB-231 [1] is 2400 nM; with A549 it was 5 µM; in the data set on HeLa it was 2100 nM. For the same molecule, the inhibition entry in data set [2], in data set [3] and in data set [4] was “Active” each time.
Regarding `CC(=O)c1cc(-c2ccc3cc(O)ccc3c2)cc([N+](=O)[O-])c1O`, the IC50 was found to be 1400 nM in the data set with MDA-MB-231 [1], 4.2 µM in the data set on A549 and 2100 nM in the data set with HeLa. The inhibition entry in [2], in data set [3] and in [4] was “Active” each time.
Take `OCCc1cc(-c2ccc3cc(O)ccc3c2)ccc1O`: the IC50 in the data set on MDA-MB-231 [1] amounted to 400 nM; in the data set with A549, 0.6 µM; in the data set on HeLa, 600 nM. Besides, the inhibition entry in [2] and in data set [3] was “inactive” each time. Also, in data set [4], the inhibition result is “Active”.
Regarding `CC[C@@]1(O)C(=O)OCc2c1cc1n(c2=O)Cc2cc3ccccc3nc2-1`, the inhibition result in [2] is “Active”.
Turning to `COc1cc([C@@H]2c3cc4c(cc3[C@@H](O[C@@H]3O[C@@H]5CO[C@@H](C)O[C@H]5[C@H](O)[C@H]3O)[C@H]3COC(=O)[C@H]23)OCO4)cc(OC)c1O` [ETOPOSIDE], the IC50 in the data set with MDA-MB-231 [1] was 3670 nM; in the data set with A549, 13.8 µM; with HeLa, 4360 nM. In addition, the inhibition result in data set [3] and in [8] was “Active” throughout. The result with MDA-MB-231 [5] was inactive. In addition, the outcome in the data set with MDA-MB-231 [6] was Active. Further, the inhibition in vivo at 20 mg/kg in the data set with MDA-MB-231 [7] turned out to be 69%. For the same molecule, in the data set with Mus musculus, the Activity is listed as 20.1 g.
As to `OCc1cc(-c2ccc3cc(O)ccc3c2)ccc1O`, the IC50 came out at 1000 nM with MDA-MB-231 [1], 2.8 µM in the data set with A549 and 1300 nM in the data set with HeLa. The inhibition result in data set [3], in data set [4], in data set [9] and in data set [11] was “Active” in each case. Besides, the inhibition result in data set [10] was “Dose-dependent effect”. Moreover, the outcome in the data set on Nucleic Acid [12], in the data set with MDA-MB-231 [18], with MDA-MB-231 [21], in the data set on MDA-MB-231 [22] and in the data set on MDA-MB-231 [23] was inactive. Besides, the values for the Activity in the data set with MDA-MB-231 [13], with MDA-MB-231 [19] and in the data set with Mus musculus were 77.79%, “Dose-dependent effect” and “Non-toxic”, respectively. The outcome in the data set with MDA-MB-231 [14], in the data set with MDA-MB-231 [15], in the data set with MDA-MB-231 [16], with MDA-MB-231 [17], with MDA-MB-231 [20] and with MDA-MB-231 [24] was Active. Moreover, the outcome in the data set on MDA-MB-231 [25] was Active. The inhibition in vivo at 20 mg/kg in the data set on MDA-MB-231 [7] came to 43.1%.
Take `COc1cc(-c2ccc3cc(O)ccc3c2)cc(C=O)c1O`: the IC50 in the data set with MDA-MB-231 [1] came to 500 nM; in the data set with A549, 1.1 µM; in the data set with HeLa, 1800 nM. In addition, the inhibition entry in [2], in [3] and in data set [4] was “Active” in each case.
Turning to `COc1cccc2c1C(=O)c1c(O)c3c(c(O)c1C2=O)C[C@@](O)(C(=O)CO)C[C@@H]3O[C@H]1C[C@H](N)[C@H](O)[C@H](C)O1`, the result in the data set with Nucleic Acid [26] was Active.
As for `Cc1cc(-c2ccc3cc(O)ccc3c2)ccc1N`, the IC50 in the data set on MDA-MB-231 [1] worked out at 2100 nM; in the data set on A549, 3.5 µM; in the data set on HeLa, 2900 nM. For the same molecule, the inhibition result in data set [3] and in data set [4] was “Active” in each case.
For the molecule `Oc1ccc2cc(-c3ccc(O)c(O)c3)ccc2c1`, the IC50 stood at 4300 nM in the data set with MDA-MB-231 [1], 11.5 µM with A549 and 4600 nM in the data set on HeLa. Besides, the inhibition result in data set [3] and in data set [4] was “Active” each time.

Source of the values: ChEMBL document CHEMBL3351570, “Design and synthesis of 2-phenylnaphthalenoids as inhibitors of DNA topoisomeraseIIα and antitumor agents” (Eur J Med Chem, 2014).
